Measured values taken from the supplement of paper PMC6045584.
± gives the standard deviation of the averaged measurements.

Legend:
[1] = compound: CC(=O)c1c(C)c2cnc(Nc3ccc(N4CCNCC4)cn3)nc2n(C2CCCC2)c1=O; experiment: surviving fraction relative to DMSO-only wells; higher = less growth inhibition; details: exposure time: 5 days
Outline: (§1)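 A line counted only if its three screens reached replicate Pearson r >0.7 and median Z' >0.3. Tumour cells in log phase were seeded at 250–500 per well in 384-well plates and, after 24 hours, kept in continuous contact with inhibitors at 0.5, 1, 5, 10, 50, 100, 500 and 1000 nM for five days. Surviving fraction was taken from CellTiter-Glo luminescence relative to the median of DMSO-only wells.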

OSI-906 = compound: C[C@]1(O)C[C@@H](c2nc(-c3ccc4ccc(-c5ccccc5)nc4c3)c3c(N)nccn32)C1 [OSI-906]; experiment: as above; details: exposure time: 5 days
Outline: as §1

Row | Test System | surviving fraction ([1]; 0.5 nM) | surviving fraction ([1]; 1 nM) | surviving fraction ([1]; 5 nM) | surviving fraction ([1]; 10 nM) | surviving fraction ([1]; 50 nM) | surviving fraction ([1]; 100 nM) | surviving fraction ([1]; 500 nM) | surviving fraction ([1]; 1000 nM) | surviving fraction (OSI-906; 0.5 nM) | surviving fraction (OSI-906; 1 nM) | surviving fraction (OSI-906; 5 nM) | surviving fraction (OSI-906; 10 nM) | surviving fraction (OSI-906; 50 nM) | surviving fraction (OSI-906; 100 nM) | surviving fraction (OSI-906; 500 nM) | surviving fraction (OSI-906; 1000 nM)
1 | MHM BONE | 1.01 ± 0.029 | 0.98 ± 0.018 | 1.037 ± 0.0076 | 1.03 ± 0.011 | 1.05 ± 0.019 | 1.03 ± 0.016 | 0.966 ± 0.015 | 0.985 ± 0.044 | 0.996 ± 0.021 | 0.978 ± 0.026 | 1.03 ± 0.025 | 0.999 ± 0.032 | 0.91 ± 0.05 | 0.872 ± 0.013 | 0.78 ± 0.022 | 0.721 ± 0.018
2 | PCI30 HEADNECK | 1.07 ± 0.085 | 1.04 ± 0.069 | 1.08 ± 0.1 | 1.07 ± 0.03 | 1.09 ± 0.062 | 0.931 ± 0.065 | 0.81 ± 0.06 | 0.781 ± 0.016 | 0.89 ± 0.027 | 0.947 ± 0.022 | 0.955 ± 0.076 | 1.05 ± 0.074 | 1.07 ± 0.051 | 1.01 ± 0.077 | 0.939 ± 0.075 | 0.931 ± 0.033
3 | SG27 HEADNECK | 1.18 ± 0.081 | 1.07 ± 0.1 | 1.02 ± 0.025 | 0.956 ± 0.086 | 1.08 ± 0.15 | 1.09 ± 0.1 | 1.06 ± 0.048 | 1.1 ± 0.33 | 1.1 ± 0.12 | 1.08 ± 0.064 | 0.916 ± 0.071 | 0.966 ± 0.059 | 1 ± 0.054 | 0.946 ± 0.044 | 0.807 ± 0.086 | 0.617 ± 0.069
4 | BT20 BREAST | 1.12 ± 0.19 | 1.06 ± 0.3 | 0.955 ± 0.23 | 0.982 ± 0.1 | 0.981 ± 0.32 | 0.924 ± 0.24 | 0.916 ± 0.22 | 0.86 ± 0.21 | 0.736 ± 0.051 | 0.724 ± 0.058 | 0.776 ± 0.05 | 0.763 ± 0.073 | 1 ± 0.031 | 1.05 ± 0.095 | 1.23 ± 0.05 | 1.28 ± 0.04
5 | 143B BONE | 1.042 ± 0.0092 | 1.048 ± 0.0064 | 1.03 ± 0.021 | 1.051 ± 0.0099 | 1.03 ± 0.046 | 1.043 ± 0.0099 | 1.03 ± 0.027 | 1.02 ± 0.027 | 1.02 ± 0.048 | 0.972 ± 0.028 | 1.07 ± 0.071 | 1.04 ± 0.05 | 0.959 ± 0.083 | 0.99 ± 0.011 | 0.9825 ± 0.0078 | 0.989 ± 0.023
6 | HCC202 BREAST | 0.959 ± 0.31 | 0.859 ± 0.088 | 1.01 ± 0.094 | 0.874 ± 0.16 | 0.863 ± 0.17 | 1 ± 0.25 | 1.19 ± 0.15 | 0.982 ± 0.22 | 0.918 ± 0.1 | 0.867 ± 0.2 | 0.966 ± 0.052 | 0.8315 ± 0.0035 | 1.1 ± 0.021 | 1.07 ± 0.15 | 0.862 ± 0.18 | 0.839 ± 0.18
7 | MDAMB436 BREAST | 0.912 ± 0.09 | 0.888 ± 0.047 | 1.01 ± 0.054 | 0.833 ± 0.032 | 0.92 ± 0.042 | 0.915 ± 0.07 | 0.915 ± 0.082 | 0.915 ± 0.031 | 0.805 ± 0.047 | 0.875 ± 0.055 | 0.887 ± 0.17 | 0.828 ± 0.054 | 0.948 ± 0.11 | 0.89 ± 0.068 | 0.985 ± 0.15 | 0.855 ± 0.12
8 | HMLE3 BREAST | 1.05 ± 0.084 | 1.08 ± 0.081 | 1.05 ± 0.026 | 1.03 ± 0.043 | 1.1 ± 0.099 | 0.962 ± 0.086 | 0.925 ± 0.12 | 0.933 ± 0.066 | 0.808 ± 0.068 | 0.887 ± 0.071 | 0.931 ± 0.045 | 0.841 ± 0.0091 | 0.875 ± 0.047 | 0.901 ± 0.079 | 0.783 ± 0.035 | 0.724 ± 0.12
9 | 22RV1 PROSTATE | 1.05 ± 0.089 | 1.06 ± 0.032 | 1.04 ± 0.067 | 1.048 ± 0.0085 | 1.09 ± 0.053 | 1.11 ± 0.08 | 1.11 ± 0.071 | 1.03 ± 0.027 | 0.9557 ± 0.009 | 1 ± 0.097 | 0.934 ± 0.11 | 1.01 ± 0.18 | 0.902 ± 0.049 | 0.928 ± 0.077 | 0.911 ± 0.14 | 0.803 ± 0.11
10 | SUM149 BREAST | 1.15 ± 0.042 | 1.09 ± 0.049 | 1.04 ± 0.076 | 0.943 ± 0.11 | 1.1 ± 0.065 | 1.14 ± 0.064 | 0.871 ± 0.024 | 0.88 ± 0.07 | 0.923 ± 0.08 | 0.951 ± 0.079 | 0.839 ± 0.035 | 0.79 ± 0.035 | 0.827 ± 0.2 | 0.782 ± 0.082 | 0.581 ± 0.078 | 0.553 ± 0.034
11 | G292 BONE | 1 ± 0.068 | 0.976 ± 0.033 | 1 ± 0.024 | 1.02 ± 0.045 | 0.951 ± 0.062 | 0.929 ± 0.058 | 0.678 ± 0.025 | 0.678 ± 0.036 | 0.923 ± 0.032 | 0.929 ± 0.035 | 0.929 ± 0.04 | 0.919 ± 0.034 | 0.728 ± 0.059 | 0.624 ± 0.021 | 0.579 ± 0.04 | 0.553 ± 0.045
12 | LNCAP PROSTATE | 0.953 ± 0.0097 | 0.975 ± 0.087 | 0.854 ± 0.13 | 0.857 ± 0.11 | 0.952 ± 0.15 | 1.1 ± 0.13 | 0.961 ± 0.079 | 0.945 ± 0.16 | 1.12 ± 0.058 | 1.07 ± 0.095 | 1.07 ± 0.036 | 1.11 ± 0.018 | 0.991 ± 0.12 | 1.05 ± 0.1 | 1.04 ± 0.032 | 1.06 ± 0.026
13 | CME SYNOVIAL | 1.23 ± 0.18 | 1.27 ± 0.14 | 1.3 ± 0.18 | 1.18 ± 0.11 | 1.37 ± 0.062 | 1.23 ± 0.099 | 1.22 ± 0.066 | 1.09 ± 0.14 | 0.905 ± 0.26 | 0.854 ± 0.13 | 0.934 ± 0.15 | 0.973 ± 0.075 | 1.08 ± 0.058 | 1.14 ± 0.21 | 0.984 ± 0.095 | 0.823 ± 0.13
